Data taken from the supplement of paper PMC10307832.

Legend:
Assay in all cases: relative viability (nuclei count vs DMSO), 5 days (fraction); higher = more cells survive
NCI-H1755 = test system: NCI-H1755
Method in brief: (§1)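 Lung cancer cell lines, seeded in 1536-well plates, were treated the following day by pin tool with a single drug or with five library-drug doses (not always all listed) in √10 steps on top of a fixed anchor-drug dose. Cells were fixed and nuclei stained in one step after 5 days, and nuclei were counted. Relative viability is the nuclei count for treated wells divided by that for vehicle wells, reported as medians of duplicate plates.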

HCC-366 = test system: HCC-366
Method in brief: as §1

SK-LU-1 = test system: SK-LU-1
Method in brief: as §1

NCI-H522 = test system: NCI-H522
Method in brief: as §1

HCC-827 = test system: HCC-827
Method in brief: as §1

NCI-H460 = test system: NCI-H460
Method in brief: as §1

NCI-H23 = test system: NCI-H23
Method in brief: as §1

EMC-BAC-2 = test system: EMC-BAC-2
Method in brief: as §1

A-427 = test system: A-427
Method in brief: as §1

CAL-12T = test system: CAL-12T
Method in brief: as §1

HOP-62 = test system: HOP-62
Method in brief: as §1

NCI-H1975 = test system: NCI-H1975
Method in brief: as §1

HARA = test system: HARA
Method in brief: as §1

NCI-H1355 = test system: NCI-H1355
Method in brief: as §1

NCI-H1437 = test system: NCI-H1437
Method in brief: as §1

LCLC-103H = test system: LCLC-103H
Method in brief: as §1

NCI-H727 = test system: NCI-H727
Method in brief: as §1

NCI-H1915 = test system: NCI-H1915
Method in brief: as §1

NCI-H1792 = test system: NCI-H1792
Method in brief: as §1

SW 1573 = test system: SW 1573
Method in brief: as §1

COR-L 105 = test system: COR-L 105
Method in brief: as §1

NCI-H1395 = test system: NCI-H1395
Method in brief: as §1

NCI-H2009 = test system: NCI-H2009
Method in brief: as §1

NCI-H2228 = test system: NCI-H2228
Method in brief: as §1

`COc1cc(N2CCC(C(N)=O)CC2)ccc1Nc1nc(N)c(Cl)c(Nc2ccccc2S(=O)(=O)C(C)C)n1` [HG-5-88-01] + Cc1nc(Nc2ncc(C(=O)Nc3c(C)cccc3Cl)s2)cc(N2CCN(CCO)CC2)n1 [Dasatinib] (partner 0.075 µM) showed a relative viability (NCI-H1755; first compound 0.04 µM) of 0.459, a relative viability (NCI-H1755; first compound 0.1265 µM) of 0.514 and a relative viability (NCI-H1755; first compound 0.4 µM) of 0.369. It also gave a relative viability (NCI-H1755; first compound 1.265 µM) of 0.29, a relative viability (NCI-H1755; first compound 4 µM) of 0.15 and a relative viability (HCC-366; first compound 0.04 µM) of 0.65. It also gave a relative viability (HCC-366; first compound 0.1265 µM) of 0.677, a relative viability (HCC-366; first compound 0.4 µM) of 0.514 and a relative viability (HCC-366; first compound 1.265 µM) of 0.691. For the same molecule, the relative viability (HCC-366; first compound 4 µM) was 0.3, the relative viability (SK-LU-1; first compound 0.04 µM) was 0.178 and the relative viability (SK-LU-1; first compound 0.1265 µM) was 0.182. For the same molecule, the relative viability (SK-LU-1; first compound 0.4 µM) was 0.106, the relative viability (SK-LU-1; first compound 1.265 µM) was 0.123 and the relative viability (SK-LU-1; first compound 4 µM) was 0.0874. For the same molecule, the relative viability (NCI-H522; first compound 0.04 µM) was 1.02, the relative viability (NCI-H522; first compound 0.1265 µM) was 0.897 and the relative viability (NCI-H522; first compound 0.4 µM) was 0.813. It also gave a relative viability (NCI-H522; first compound 1.265 µM) of 0.781, a relative viability (NCI-H522; first compound 4 µM) of 0.849 and a relative viability (HCC-827; first compound 0.04 µM) of 0.279. The relative viability (HCC-827; first compound 0.1265 µM) was 0.271, the relative viability (HCC-827; first compound 0.4 µM) was 0.235 and the relative viability (HCC-827; first compound 1.265 µM) was 0.101. It also gave a relative viability (HCC-827; first compound 4 µM) of 0.118, a relative viability (NCI-H460; first compound 0.04 µM) of 0.481 and a relative viability (NCI-H460; first compound 0.1265 µM) of 0.56. It also gave a relative viability (NCI-H460; first compound 0.4 µM) of 0.316, a relative viability (NCI-H460; first compound 1.265 µM) of 0.255 and a relative viability (NCI-H460; first compound 4 µM) of 0.0831. For the same molecule, the relative viability (NCI-H23; first compound 0.04 µM) was 0.703, the relative viability (NCI-H23; first compound 0.1265 µM) was 0.84 and the relative viability (NCI-H23; first compound 0.4 µM) was 0.51. The relative viability (NCI-H23; first compound 1.265 µM) was 0.588, the relative viability (NCI-H23; first compound 4 µM) was 0.265 and the relative viability (EMC-BAC-2; first compound 0.04 µM) was 0.31. For the same molecule, the relative viability (EMC-BAC-2; first compound 0.1265 µM) was 0.343, the relative viability (EMC-BAC-2; first compound 0.4 µM) was 0.217 and the relative viability (EMC-BAC-2; first compound 1.265 µM) was 0.243. The relative viability (EMC-BAC-2; first compound 4 µM) was 0.218, the relative viability (A-427; first compound 0.04 µM) was 0.77 and the relative viability (A-427; first compound 0.1265 µM) was 0.686. It also gave a relative viability (A-427; first compound 0.4 µM) of 0.676, a relative viability (A-427; first compound 1.265 µM) of 0.746 and a relative viability (A-427; first compound 4 µM) of 0.431. For the same molecule, the relative viability (CAL-12T; first compound 0.04 µM) was 0.382, the relative viability (CAL-12T; first compound 0.1265 µM) was 0.36 and the relative viability (CAL-12T; first compound 0.4 µM) was 0.154. For the same molecule, the relative viability (CAL-12T; first compound 1.265 µM) was 0.0794, the relative viability (CAL-12T; first compound 4 µM) was 0.0951 and the relative viability (HOP-62; first compound 0.04 µM) was 0.682. It also gave a relative viability (HOP-62; first compound 0.1265 µM) of 0.606, a relative viability (HOP-62; first compound 0.4 µM) of 0.487 and a relative viability (HOP-62; first compound 1.265 µM) of 0.444. For the same molecule, the relative viability (HOP-62; first compound 4 µM) was 0.253, the relative viability (NCI-H1975; first compound 0.04 µM) was 0.358 and the relative viability (NCI-H1975; first compound 0.1265 µM) was 0.352. The relative viability (NCI-H1975; first compound 0.4 µM) was 0.284, the relative viability (NCI-H1975; first compound 1.265 µM) was 0.217 and the relative viability (NCI-H1975; first compound 4 µM) was 0.145. For the same molecule, the relative viability (HARA; first compound 0.04 µM) was 0.25, the relative viability (HARA; first compound 0.1265 µM) was 0.255 and the relative viability (HARA; first compound 0.4 µM) was 0.147. For the same molecule, the relative viability (HARA; first compound 1.265 µM) was 0.113, the relative viability (HARA; first compound 4 µM) was 0.219 and the relative viability (NCI-H1355; first compound 0.04 µM) was 0.675. For the same molecule, the relative viability (NCI-H1355; first compound 0.1265 µM) was 0.77, the relative viability (NCI-H1355; first compound 0.4 µM) was 0.597 and the relative viability (NCI-H1355; first compound 1.265 µM) was 0.574. For the same molecule, the relative viability (NCI-H1355; first compound 4 µM) was 0.388, the relative viability (NCI-H1437; first compound 0.04 µM) was 0.411 and the relative viability (NCI-H1437; first compound 0.1265 µM) was 0.306. The relative viability (NCI-H1437; first compound 0.4 µM) was 0.231, the relative viability (NCI-H1437; first compound 1.265 µM) was 0.234 and the relative viability (NCI-H1437; first compound 4 µM) was 0.267. For the same molecule, the relative viability (LCLC-103H; first compound 0.04 µM) was 0.522, the relative viability (LCLC-103H; first compound 0.1265 µM) was 0.464 and the relative viability (LCLC-103H; first compound 0.4 µM) was 0.418. It also gave a relative viability (LCLC-103H; first compound 1.265 µM) of 0.373, a relative viability (LCLC-103H; first compound 4 µM) of 0.341 and a relative viability (NCI-H727; first compound 0.04 µM) of 0.335. For the same molecule, the relative viability (NCI-H727; first compound 0.1265 µM) was 0.334, the relative viability (NCI-H727; first compound 0.4 µM) was 0.282 and the relative viability (NCI-H727; first compound 1.265 µM) was 0.173. The relative viability (NCI-H727; first compound 4 µM) was 0.217, the relative viability (NCI-H1915; first compound 0.04 µM) was 0.347 and the relative viability (NCI-H1915; first compound 0.1265 µM) was 0.316. For the same molecule, the relative viability (NCI-H1915; first compound 0.4 µM) was 0.295, the relative viability (NCI-H1915; first compound 1.265 µM) was 0.314 and the relative viability (NCI-H1915; first compound 4 µM) was 0.239. The relative viability (NCI-H1792; first compound 0.04 µM) was 0.959, the relative viability (NCI-H1792; first compound 0.1265 µM) was 0.693 and the relative viability (NCI-H1792; first compound 0.4 µM) was 0.78. For the same molecule, the relative viability (NCI-H1792; first compound 4 µM) was 0.525, the relative viability (SW 1573; first compound 0.04 µM) was 0.425 and the relative viability (SW 1573; first compound 0.1265 µM) was 0.426. For the same molecule, the relative viability (SW 1573; first compound 0.4 µM) was 0.353, the relative viability (SW 1573; first compound 1.265 µM) was 0.279 and the relative viability (SW 1573; first compound 4 µM) was 0.266. The relative viability (COR-L 105; first compound 0.04 µM) was 0.305, the relative viability (COR-L 105; first compound 0.1265 µM) was 0.314 and the relative viability (COR-L 105; first compound 0.4 µM) was 0.254. It also gave a relative viability (COR-L 105; first compound 1.265 µM) of 0.203, a relative viability (COR-L 105; first compound 4 µM) of 0.19 and a relative viability (NCI-H1395; first compound 0.04 µM) of 0.416. The relative viability (NCI-H1395; first compound 0.1265 µM) was 0.371, the relative viability (NCI-H1395; first compound 0.4 µM) was 0.393 and the relative viability (NCI-H1395; first compound 1.265 µM) was 0.394. For the same molecule, the relative viability (NCI-H1395; first compound 4 µM) was 0.36, the relative viability (NCI-H2009; first compound 0.04 µM) was 0.26 and the relative viability (NCI-H2009; first compound 0.1265 µM) was 0.251. It also gave a relative viability (NCI-H2009; first compound 0.4 µM) of 0.161, a relative viability (NCI-H2009; first compound 1.265 µM) of 0.141 and a relative viability (NCI-H2009; first compound 4 µM) of 0.156. It also gave a relative viability (NCI-H2228; first compound 0.04 µM) of 0.106, a relative viability (NCI-H2228; first compound 0.1265 µM) of 0.0974 and a relative viability (NCI-H2228; first compound 0.4 µM) of 0.0904. It also gave a relative viability (NCI-H2228; first compound 1.265 µM) of 0.101 and a relative viability (NCI-H2228; first compound 4 µM) of 0.0733.
